Consider 24 compounds from patent publication US6215002A, “Pyrrolopyrrolone derivatives as inhibitors of neutrophil elastase” (priority 1996, dated 2001).

This test has as its target T1, human neutrophil elastase (Homo sapiens, UniProt P08246).
T1 sequence (P08246 30-267): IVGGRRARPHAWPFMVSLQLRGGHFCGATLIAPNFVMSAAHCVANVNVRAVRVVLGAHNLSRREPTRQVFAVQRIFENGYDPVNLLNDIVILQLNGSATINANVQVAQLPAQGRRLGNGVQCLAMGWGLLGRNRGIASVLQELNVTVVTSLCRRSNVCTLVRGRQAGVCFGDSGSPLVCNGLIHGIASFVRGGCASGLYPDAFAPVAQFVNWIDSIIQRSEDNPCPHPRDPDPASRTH
In words: In vitro assay of human neutrophil elastase (HNE). It is filed as biochemical. Particulars: pH 8.6, 15 min incubation at 30° C., MeO-succinyl-alanyl-alanyl-prolyl-valyl-p-nitroanilide substrate. As to the method: In Vitro Assays of Human Neutrophil Elastase
118 nM purified human neutrophil elastase
Suitable concentrations of compound under test diluted with water from a 10 mM stock solution in dimethylsulphoxide. Values above are final concentrations after the addition of substrate solution (see below).
The mixture above is incubated for fifteen minutes at 30° C. at which time the remaining elastase activity is measured for 10 minutes in a BioTek 340i plate-reader, after the addition of 0.6 mM MeO-succinyl-alanyl-alanyl-prolyl-valyl-p-nitroanilide. The rate of increase in absorbance at 405 nm is proportional to elastase activity. Enzyme activity is plotted against concentration of inhibitor and an IC50 determined using curve fitting software.
1. The compounds were tested in the in vitro elastase test described earlier in the description.

Where [1] appears, read: 118 nM purified human neutrophil elastase, read-out: HNE IC50.

Counter-ions that a name gives are not always drawn. Like-named read-outs stand apart in the source and are kept apart here.

What is called IC50 is the midpoint of a concentration-inhibition curve. On to `CCC[C@H]1C(=O)N(S(C)(=O)=O)[C@H]2CCN(C(=O)CCCCCN3CCCC3)[C@H]12` (relative stereo) [Example 73, rel-(3R,3aR,6aS)-1-Methanesulfonyl-3-propyl-4-(6-pyrrolidin-1-yl-hexanoyl)-hexahydro-pyrrolo[3,2-b]pyrrol-2-one hydrochloride], for which the IC50 under setting [1] came to 74 nM.
Still for that read-out and setting: under `CCC[C@H]1C(=O)N(S(=O)(=O)c2cccc3c2NCCC3)[C@H]2CCN(C(=O)OCc3ccccc3)[C@H]12` (relative stereo) [Example 50, rel-(3aS,6R,6aR)-5-Oxo-6-propyl-4-(1,2,3,4-tetrahydro-quinoline-8-sulfonyl-hexahydro-pyrrolo[3,2-b]pyrrole-1-carboxylic acid benzyl ester] stands 362 nM; under `CCC[C@H]1C(=O)N(S(C)(=O)=O)[C@H]2CCN(C(=O)CCCN(C)c3ccccc3)[C@H]12` (relative stereo) [Example 88, rel-(3R,3aR,6aS)-1-Methanesulfonyl-4-[4-(methyl-phenyl-amino)-butyryl]-3-propyl-hexahydro-pyrrolo[3,2-b]pyrrol-2-one hydrochloride], 75 nM.
For the compound `CCC[C@H]1C(=O)N(S(C)(=O)=O)[C@H]2CCN(C(=O)CCCCCN3C4CCCC3CC4)[C@H]12` (relative stereo) [Example 75, rel-(3R,3aR,6aS)-4-(6-8-Aza-bicyclo[3.2. 1]oct-8-yl-hexanoyl)-1-methanesulfonyl-3-propyl-hexahydro-pyrrolo[3,2-b]pyrrol-2-one hydrochloride], where the note is “HNE IC50, 118 nM purified human neutrophil elastase”, inhibition was half-maximal at 33 nM (IC50).
As for `CCC[C@H]1C(=O)N(S(C)(=O)=O)[C@H]2CCN(C(=O)CN3CCN(C)CC3)[C@H]12` (relative stereo) [Example 105, rel-(3R,3aR,6aS)-1-Methanesulfonyl-4-[(4-methyl-piperazin-1-yl)-acetyl]-3-propyl-hexahydro-pyrrolo[3,2-b]pyrrol-2-one hydrochloride], under setting [1], the IC50 is 193 nM.
On the same count and under the same terms, under `CCC[C@H]1C(=O)N(S(=O)(=O)c2cccc3ccccc23)[C@H]2CCN(C(=O)C3CCN(C(=O)OC(C)(C)C)CC3)[C@H]12` (relative stereo) [Example 16, rel-(3aS,6R,6aR)-4-[4-(Naphthalene-1-sulfonyl)-5-oxo-6-propyl-hexahydro-pyrrolo[3,2-b]pyrrole-1-carbonyl-carbonyl]-piperidine-1-carboxylic acid tert-butyl] stands 267 nM; under `CCC[C@H]1C(=O)N(S(=O)(=O)c2ccc3ccccc3c2)[C@H]2CCN(S(C)(=O)=O)[C@H]12` (relative stereo) [Example 22, rel-(3R,3aR,6aS)-4-Methanesulfonyl-1-(naphthalene-2-sulfonyl)-3-propyl-hexahydro-pyrrolo[3,2-b]pyrrol-2-one], 60 nM; under `CCC[C@H]1C(=O)N(S(=O)(=O)c2ccc3ccccc3c2)[C@H]2CCN(C(=O)CCCCCN3CCCCC3)[C@H]12` (relative stereo) [Example 40, rel-(3R,3aR,6aS)-1-(Naphthalene-2-sulfonyl)-4-(6-piperidin-1-yl-hexanoyl)-3-propyl-hexahydro-pyrrolo[3,2-b]pyrrol-2-one tartrate], 50 nM.
Consider `CCC[C@H]1C(=O)N(S(C)(=O)=O)[C@H]2CCN(S(=O)(=O)c3cccc(N)c3)[C@H]12` (relative stereo) [Example 235, rel-(3R,3aR,6aS)-4-(3-Amino-benzenesulfonyl)-1-methanesulfonyl-3-propyl-hexahydro-pyrrolo[3,2-b]pyrrol-2-one hydrochloride], for which the IC50 under setting [1] is 9 nM.
Same read-out and setting: to `CCC[C@H]1C(=O)N(S(C)(=O)=O)[C@H]2CCN(S(=O)(=O)c3ccccc3C(F)(F)F)[C@H]12` (relative stereo) [Example 225, rel-(3R,3aR,6aS)-1-Methanesulfonyl-3-propyl-4-(2-trifluoromethyl-benzenesulfonyl)-hexahydro-pyrrolo[3,2-b]pyrrol-2-one] belongs 120 nM; to `CCC[C@H]1C(=O)N(S(C)(=O)=O)[C@H]2CCN(C(=O)/C=C/c3ccc(NC(C)=O)cc3)[C@H]12` (relative stereo) [Example 134, rel-N-{4-[3-(4-Methanesulfonyl-5-oxo-6R-propyl-hexahydro-(3aS,6aR)-pyrrolo[3,2-b]pyrrol-1-yl)-3-oxo-(E)-propenyl]-phenyl}acetamide], 23 nM.
Same read-out and setting: under `CCC[C@H]1C(=O)N(S(=O)(=O)/C=C/c2ccccc2)[C@H]2CCN(S(=O)(=O)Cc3ccccc3)[C@H]12` (relative stereo) [Example 33, rel-(3R,3aR,6aS)-1-(2-Phenyl-(E)-ethenesulfonyl)-4-phenylmethanesulfonyl-3-propyl-hexahydro-pyrrolo[3,2-b]pyrrol-2-one] stands 458 nM; under `CCC[C@H]1C(=O)N(S(C)(=O)=O)[C@H]2CCN(S(=O)(=O)c3ccc(C#N)cc3)[C@H]12` (relative stereo) [Example 218, rel-4-(4-Methanesulfonyl-5-oxo-6R-propyl-hexahydro-(3aS,6aR)-pyrrolo[3,2-b]pyrrole-1-sulfonyl)-benzonitrile], 26 nM; under `CCC[C@H]1C(=O)N(S(=O)(=O)c2cccc3cnccc23)[C@H]2CCN(S(C)(=O)=O)[C@H]12` (relative stereo) [Example 51, rel-(3R,3aR,6aS)-1-(Isoquinoline-5-sulfonyl)-4-methanesulfonyl-3-propyl-hexahydro-pyrrolo[3,2-b]pyrrol-2-one], 55 nM.
Same read-out and setting: to `CCC[C@H]1C(=O)N(S(C)(=O)=O)[C@H]2CCN(C(=O)CCCCCCCCCN3CCCCC3)[C@H]12` (relative stereo) [Example 70, rel-(3R,3aR,6aS)-1-Methanesulfonyl-4-(10-piperidin-1-yl-decanoyl)-3-propyl-hexahydro-pyrrolo[3,2-b]pyrrol-2-one DL-tartrate] belongs 41 nM; to `CCC[C@H]1C(=O)N(S(C)(=O)=O)[C@H]2CCN(C(=O)CCCN(C)C)[C@H]12` (relative stereo) [Example 85, rel-(3R,3aR,6aS)-4-(4-Dimethylamino-butyryl)-1-methanesulfonyl-3-propyl-hexahydro-pyrrolo[3,2-b]pyrrol-2-one DL-tartrate], 182 nM; to `CCC[C@H]1C(=O)N(S(C)(=O)=O)[C@H]2CCN(C(=O)c3ccco3)[C@H]12` (relative stereo) [Example 231, rel-(3R,3aR,6aS)-4-(Furan-2-carbonyl)-1-methanesulfonyl-3-propyl-hexahydro-pyrrolo[3,2-b]pyrrol-2-one], 35 nM.
With `CCC[C@H]1C(=O)N(S(C)(=O)=O)[C@H]2CCN(S(=O)(=O)c3ccccc3)[C@H]12` (relative stereo) [Example 219, rel-(3R,3aR,6aS)-4-Benzenesulfonyl-1-methanesulfonyl-3-propyl-hexahydro-pyrrolo[3,2-]pyrrol-2-one], under setting [1], the half-maximal inhibitory concentration (IC50) amounted to 10 nM.
Same read-out and setting: to `C=CC[C@H]1C(=O)N(S(=O)(=O)c2cc3ccccc3s2)[C@@H]2CCN(C(=O)OCc3ccccc3)[C@H]21` (relative stereo) [Example 42, rel-(3aR,6R,6aS)-6-Allyl-4-(benzo[b]thiophene-2-sulfonyl)-5-oxo-hexahydro-pyrrolo[3,2-b]pyrrole-1-carboxylic acid benzyl ester] belongs 78 nM; to `CCC[C@H]1C(=O)N(S(=O)(=O)c2ccc3ccccc3c2)[C@H]2CCN(S(=O)(=O)Cc3ccccc3)[C@H]12` (relative stereo) [Example 34, rel-(3aR,6R,6aS)-1-(Naphthalene-2-sulfonyl)-4-phenylmethanesulfonyl-3-propyl-hexahydro-pyrrolo[3,2-b]pyrrol-2-one], 52 nM.
On the same count and under the same terms, under `C/C=C/C(=O)N1CC[C@H]2[C@H]1[C@@H](CCC)C(=O)N2S(C)(=O)=O` (relative stereo) [Example 131, rel-(3R,3aR,6aS)-4-But-2E-enoyl-1-methanesulfonyl-3-propyl-hexahydro-pyrrolo[3,2-b]pyrrol-2-one] stands 102 nM; under `CCC[C@H]1C(=O)N(S(=O)(=O)c2ccc([N+](=O)[O-])cc2)[C@H]2CCN(C(=O)CCCCCN3CCCCC3)[C@H]12` (relative stereo) [Example 203, rel-(3R,3aR,6aS)-1-(4-Nitro-benzenesulfonyl)-4-(6-piperidin-1-yl-hexanoyl)-3-propyl-hexahydro-pyrrolo[3,2-b]pyrrol-2-one DL-tartrate], 38 nM; under `CCC[C@H]1C(=O)N(S(C)(=O)=O)[C@H]2CCN(C(=O)CN3CCCCC3)[C@H]12` (relative stereo) [Example 100, rel-(3R,3aR,6aS)-1-Methanesulfonyl-4-(piperidin-1-yl-acetyl)-3-propyl-hexahydro-pyrrol[3,2-b]pyrrol-2-one hydrochloride], 650 nM.
As for `C=CC[C@H]1C(=O)N(S(=O)(=O)c2cccc3ccccc23)[C@H]2CCN(C(=O)OCc3ccccc3)[C@H]12` (relative stereo) [Example 15, rel-(3sS,6R,6aR)-6-Allyl-4-(naphthalene-1-sulfonyl)-5-oxo-hexahydro-pyrrolo[3,2-b]pyrrole-1-carboxylic acid benzyl ester], under setting [1], the half-maximal inhibitory concentration (IC50) was found to be 10 nM.
